Key:
[1] = test system: duck salad; test: Test B flood test duck salad; type: in vivo, Heteranthera limosa
Procedure, shortened: (§1)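 Read-out is a visual response score from 0 (no effect) to 10 (complete control), assigned by comparison with untreated controls. Treatment was applied at the 2-leaf stage, and plants stayed in the greenhouse for twelve to sixteen days before scoring.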

[2] = test system: cocklebur; test: Test B pre/postemergence cocklebur; type: in vivo, Xanthium strumarium
Procedure, shortened: (§2)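 Response is a visual 0-to-10 score relative to untreated plants, where 0 means no effect and 10 means complete control, taken twelve to sixteen days after application. Treatments went onto soil at planting and onto foliage of 1- to 4-leaf plants, using a surfactant-containing non-phytotoxic solvent.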

[3] = test system: wild oat; test: Test B pre/postemergence wild oat; type: in vivo, Avena fatua
Procedure, shortened: as §2

[4] = test system: morningglory; test: Test B pre/postemergence morningglory; type: in vivo, Ipomoea hederacea
Procedure, shortened: as §2

[5] = test system: bedstraw; test: Test B pre/postemergence bedstraw; type: in vivo, Galium aparine
Procedure, shortened: as §2

[6] = test system: pigweed; test: Test B pre/postemergence pigweed; type: in vivo, Amaranthus retroflexus
Procedure, shortened: as §2

[7] = test system: smallflower flatsedge; test: Test B flood test smallflower flatsedge; type: in vivo, Cyperus difformis
Procedure, shortened: as §1

[8] = test system: rape; test: Test B pre/postemergence rape; type: in vivo, Brassica napus
Procedure, shortened: as §2

[9] = test system: giant foxtail; test: Test B pre/postemergence giant foxtail; type: in vivo, Setaria faberii
Procedure, shortened: as §2

[10] = test system: surinam grass; test: Test B pre/postemergence surinam grass; type: in vivo, Brachiaria decumbens
Procedure, shortened: as §2

[11] = test system: sugar beet; test: Test B pre/postemergence sugar beet; type: in vivo, Beta vulgaris
Procedure, shortened: as §2

[12] = test system: crabgrass; test: Test B pre/postemergence crabgrass; type: in vivo, Digitaria sanguinalis
Procedure, shortened: as §2

[13] = test system: corn; test: Test B pre/postemergence corn; type: in vivo, Zea mays
Procedure, shortened: as §2

[14] = test system: bamyardgrass; test: Test B flood test barnyardgrass; type: in vivo, Echinochloa crus-galli
Procedure, shortened: as §1

[15] = test system: blackgrass; test: Test B pre/postemergence blackgrass; type: in vivo, Alopecurus myosuroides
Procedure, shortened: as §2

[16] = test system: wheat; test: Test B pre/postemergence wheat; type: in vivo, Triticum aestivum
Procedure, shortened: as §2

[17] = test system: purple nutsedge; test: Test B pre/postemergence purple nutsedge; type: in vivo, Cyperus rotundus
Procedure, shortened: as §2

[18] = test system: soybean; test: Test B pre/postemergence soybean; type: in vivo, Glycine max
Procedure, shortened: as §2

[19] = test system: velvetleaf; test: Test B pre/postemergence velvetleaf; type: in vivo, Abutilon theophrasti
Procedure, shortened: as §2

[20] = test system: rice; test: Test B flood test rice; type: in vivo, Oryza sativa
Procedure, shortened: as §1

[21] = Rate 62 g/ha, headed Pre-emergence (flood test species), scale 0 to 10 (0 no effect, 10 complete control)
[22] = Rate 125 g/ha, Pre-emergence, flood test species, scale 0 to 10 where 0 is no effect and 10 is complete control
[23] = Rate 250 g/ha, Pre-emergence, flood-test species, scale 0 to 10, 0 is no effect, 10 is complete control
[24] = Rate 500 g/ha, Pre-emergence, flood test species, scale 0 to 10 (0 no effect, 10 complete control)
[25] = Preemergence, Rate 62 g/ha, scale of 0 to 10 where 0 is no effect and 10 is complete control
[26] = Preemergence, Rate 250 g/ha, scale of 0 to 10 where 0 is no effect and 10 is complete control
[27] = Preemergence, Rate 500 g/ha, scale of 0 to 10 where 0 is no effect and 10 is complete control
[28] = Rate 62 g/ha, Postemergence, scale of 0 to 10 where 0 is no effect and 10 is complete control
[29] = Rate 125 g/ha, Postemergence, scale 0 to 10
[30] = Rate 125 g/ha, Preemergence, scale of 0 to 10 where 0 is no effect and 10 is complete control
[31] = Rate 500 g/ha, Postemergence, scale 0 to 10, 0 no effect, 10 complete control

CC(C)N(C(=O)n1oc(=O)n(CCC2CCCCC2)c1=O)c1ccc(F)cc1 [Compound 257]
0: Ducksalad plant response rating [1, 21] | Ducksalad plant response rating [1, 22] | Ducksalad plant response rating [1, 23] | Ducksalad plant response rating [1, 24] | Cocklebur plant response rating [2, 25] | Cocklebur plant response rating [2, 26] | Plant response rating, Cocklebur [2, 27] | Cocklebur plant response rating [2, 28] | Cocklebur plant response rating [2, 29] | Cocklebur plant response rating [2, 30] | Plant response rating (0 to 10; 0 is no effect, 10 is complete control), Cocklebur ([2]; Rate 250 g/ha, Postemergence) | Cocklebur plant response rating [2, 31] | Wild oats plant response rating [3, 25] | Wild oats plant response rating [3, 26] | Wild oats plant response rating [3, 30] | Wild oats plant response rating [3, 31] | Morningglory plant response rating [4, 25] | Morningglory plant response rating [4, 30] | Bedstraw plant response rating [5, 25] | Bedstraw plant response rating [5, 26] | Plant response rating, Bedstraw [5, 27] | Bedstraw plant response rating [5, 28] | Bedstraw plant response rating [5, 29] | Bedstraw plant response rating [5, 30] | Plant response rating (0 to 10; 0 is no effect, 10 is complete control), Bedstraw ([5]; Rate 250 g/ha, Postemergence) | Bedstraw plant response rating [5, 31] | Redroot pigweed plant response rating [6, 25] | Redroot pigweed plant response rating [6, 26] | Redroot pigweed plant response rating [6, 30] | S. Flatsedge plant response rating [7, 21] | S. Flatsedge plant response rating [7, 22] | S. Flatsedge plant response rating [7, 23] | S. Flatsedge plant response rating [7, 24] | Rape plant response rating [8, 25] | Rape plant response rating [8, 26] | Plant response rating, Rape [8, 27] | Rape plant response rating [8, 30] | Plant response rating (0 to 10; 0 is no effect, 10 is complete control), Giant foxtail ([9]; Rate 250 g/ha, Postemergence) | B. signalgrass plant response rating [10, 25] | B. signalgrass plant response rating [10, 26] | B. signalgrass plant response rating [10, 28] | B. signalgrass plant response rating ([10]; Rate 125 g/ha, Postemergence, scale 0 (no effect) to 10 (complete control)) | B. signalgrass plant response rating [10, 30] | Plant response rating (0 to 10; 0 is no effect, 10 is complete control), B. signalgrass ([10]; Rate 250 g/ha, Postemergence) | B. signalgrass plant response rating [10, 31] | Sugarbeets plant response rating [11, 25] | Sugarbeets plant response rating [11, 26] | Plant response rating, Sugarbeets [11, 27] | Sugarbeets plant response rating [11, 30] | Crabgrass plant response rating [12, 25] | Corn plant response rating [13, 25] | Corn plant response rating [13, 26] | Plant response rating, Corn [13, 27] | Corn plant response rating [13, 28] | Corn plant response rating [13, 29] | Corn plant response rating [13, 30] | Plant response rating (0 to 10; 0 is no effect, 10 is complete control), Corn ([13]; Rate 250 g/ha, Postemergence) | Corn plant response rating [13, 31] | Barnyardgrass plant response rating [14, 21] | Barnyardgrass plant response rating [14, 22] | Barnyardgrass plant response rating [14, 23] | Barnyardgrass plant response rating [14, 24] | Blackgrass plant response rating [15, 25] | Blackgrass plant response rating [15, 26] | Plant response rating, Blackgrass [15, 27] | Blackgrass plant response rating [15, 28] | Blackgrass plant response rating [15, 29] | Blackgrass plant response rating [15, 30] | Wheat plant response rating [16, 25] | Wheat plant response rating [16, 26] | Wheat plant response rating [16, 30] | Wheat plant response rating [16, 31] | Nutsedge plant response rating [17, 26] | Plant response rating, Nutsedge [17, 27] | Nutsedge plant response rating [17, 30] | Plant response rating (0 to 10; 0 is no effect, 10 is complete control), Nutsedge ([17]; Rate 250 g/ha, Postemergence) | Nutsedge plant response rating [17, 31] | Soybean plant response rating [18, 25] | Soybean plant response rating [18, 26] | Plant response rating, Soybean [18, 27] | Soybean plant response rating [18, 30] | Velvetleaf plant response rating [19, 25] | Velvetleaf plant response rating [19, 26] | Plant response rating, Velvetleaf [19, 27] | Velvetleaf plant response rating [19, 30] | Rice plant response rating [20, 21] | Rice plant response rating [20, 22] | Rice plant response rating [20, 23] | Rice plant response rating [20, 24]
1: Plant response rating (0 to 10; 0 is no effect, 10 is complete control), Blackgrass ([15]; Rate 250 g/ha, Postemergence) | Velvetleaf plant response rating [19, 31]
5: Rape plant response rating [8, 31] | Sugarbeets plant response rating [11, 31] | Plant response rating, Crabgrass [12, 27]
6: Redroot pigweed plant response rating [6, 31] | Giant foxtail plant response rating [9, 26] | Giant foxtail plant response rating [9, 30]
2: Morningglory plant response rating [4, 26] | Plant response rating (0 to 10; 0 is no effect, 10 is complete control), Rape ([8]; Rate 250 g/ha, Postemergence) | Giant foxtail plant response rating [9, 31] | Crabgrass plant response rating [12, 26] | Crabgrass plant response rating [12, 30] | Plant response rating (0 to 10; 0 is no effect, 10 is complete control), Crabgrass ([12]; Rate 250 g/ha, Postemergence) | Blackgrass plant response rating [15, 31]
9: Plant response rating, Giant foxtail [9, 27]
4: Plant response rating, Wild oats [3, 27] | Plant response rating, Morningglory [4, 27] | Plant response rating, Redroot pigweed [6, 27] | Plant response rating (0 to 10; 0 is no effect, 10 is complete control), Redroot pigweed ([6]; Rate 250 g/ha, Postemergence) | Crabgrass plant response rating [12, 31] | Plant response rating, Wheat [16, 27] | Soybean plant response rating [18, 31]
8: Plant response rating (0 to 10; 0 is no effect, 10 is complete control), Morningglory ([4]; Rate 250 g/ha, Postemergence) | Morningglory plant response rating [4, 31]
3: Giant foxtail plant response rating [9, 25] | Plant response rating, B. signalgrass [10, 27]

Source: US6737383B1, “Herbicidal oxadiazolidines” (priority 1999, dated 2004)
